Source: ChEMBL document CHEMBL1201862, “PubChem BioAssay data set” (2004)
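Five compound concentrations were applied to cells in 96-well plates for 48 hours; endpoints were derived by simple linear interpolation of the resulting dose-response curve. GI50 = concentration required for 50% inhibition of growth.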 Active and inactive are the calls of the source. No stated cut-off is given here; in the data, active = GI50 up to about 1.1 µM and inactive = higher.

Columns and labels:
Test in all cases: DTP human tumour cell line panel, 48 h
Hs-578T = test system: Hs-578T
UACC-62 = test system: UACC-62
COLO 205 = test system: COLO 205
SF-295 = test system: SF-295
HCC 2998 = test system: HCC 2998
TK-10 = test system: TK-10
UO-31 = test system: UO-31
SK-MEL-5 = test system: SK-MEL-5
SK-OV-3 = test system: SK-OV-3
SNB-75 = test system: SNB-75
HOP-92 = test system: HOP-92
HCT-15 = test system: HCT-15
SNB-19 = test system: SNB-19
OVCAR-5 = test system: OVCAR-5
HOP-62 = test system: HOP-62
NCI/ADR-RES = test system: NCI/ADR-RES
SF-268 = test system: SF-268
LOX IMVI = test system: LOX IMVI
T47D = test system: T47D
CAKI-1 = test system: CAKI-1
NCI-H226 = test system: NCI-H226
MCF7 = test system: MCF7
K562 = test system: K562
MDA-N = test system: MDA-N
PC-3 = test system: PC-3
MOLT-4 = test system: MOLT-4
NCI-H23 = test system: NCI-H23
786-0 = test system: 786-0
OVCAR-3 = test system: OVCAR-3
HL-60 = test system: HL-60
CCRF-CEM = test system: CCRF-CEM
IGROV-1 = test system: IGROV-1
OVCAR-4 = test system: OVCAR-4
MDA-MB-435 = test system: MDA-MB-435
UACC-257 = test system: UACC-257
ACHN = test system: ACHN
NCI-H460 = test system: NCI-H460
OVCAR-8 = test system: OVCAR-8
SK-MEL-28 = test system: SK-MEL-28
SN12C = test system: SN12C
U-251 = test system: U-251
SF-539 = test system: SF-539
HCT-116 = test system: HCT-116
A549 = test system: A549
DU-145 = test system: DU-145
A498 = test system: A498
Malme-3M = test system: Malme-3M
SK-MEL-2 = test system: SK-MEL-2
BT-549 = test system: BT-549
M14 = test system: M14
NCI-H522 = test system: NCI-H522
KM12 = test system: KM12
HT-29 = test system: HT-29
SW-620 = test system: SW-620
EKVX = test system: EKVX
MDA-MB-231 = test system: MDA-MB-231
RPMI-8226 = test system: RPMI-8226
RXF 393 = test system: RXF 393

Compound: CN(C)/N=C/c1cn(C)c(=O)n(C)c1=O
- GI50 (Hs-578T): > 100 µM (inactive)
- GI50 (UACC-62): > 100 µM (inactive)
- GI50 (COLO 205): > 100 µM (inactive)
- GI50 (SF-295): > 100 µM (inactive)
- GI50 (HCC 2998): > 100 µM (inactive)
- GI50 (TK-10): > 100 µM (inactive)
- GI50 (UO-31): > 100 µM (inactive)
- GI50 (SK-MEL-5): > 100 µM (inactive)
- GI50 (SK-OV-3): > 100 µM (inactive)
- GI50 (SNB-75): 35.4 µM (inactive)
- GI50 (HOP-92): > 100 µM (inactive)
- GI50 (HCT-15): > 100 µM
- GI50 (SNB-19): > 100 µM (inactive)
- GI50 (OVCAR-5): > 100 µM (inactive)
- GI50 (HOP-62): > 100 µM (inactive)
- GI50 (NCI/ADR-RES): > 100 µM (inactive)
- GI50 (SF-268): > 100 µM (inactive)
- GI50 (LOX IMVI): > 100 µM (inactive)
- GI50 (T47D): > 100 µM (inactive)
- GI50 (CAKI-1): > 100 µM (inactive)
- GI50 (NCI-H226): > 100 µM (inactive)
- GI50 (MCF7): > 100 µM (inactive)
- GI50 (K562): > 100 µM (inactive)
- GI50 (MDA-N): > 100 µM (inactive)
- GI50 (PC-3): > 100 µM (inactive)
- GI50 (MOLT-4): > 100 µM (inactive)
- GI50 (NCI-H23): > 100 µM (inactive)
- GI50 (786-0): > 100 µM (inactive)
- GI50 (OVCAR-3): > 100 µM (inactive)
- GI50 (HL-60): > 100 µM (inactive)
- GI50 (CCRF-CEM): > 100 µM (inactive)
- GI50 (IGROV-1): > 100 µM (inactive)
- GI50 (OVCAR-4): > 100 µM (inactive)
- GI50 (MDA-MB-435): > 100 µM (inactive)
- GI50 (UACC-257): > 100 µM (inactive)
- GI50 (ACHN): > 100 µM (inactive)
- GI50 (NCI-H460): > 100 µM (inactive)
- GI50 (OVCAR-8): > 100 µM (inactive)
- GI50 (SK-MEL-28): > 100 µM (inactive)
- GI50 (SN12C): > 100 µM (inactive)
- GI50 (U-251): > 100 µM (inactive)
- GI50 (SF-539): > 100 µM (inactive)
- GI50 (HCT-116): > 100 µM (inactive)
- GI50 (A549): > 100 µM (inactive)
- GI50 (DU-145): > 100 µM (inactive)
- GI50 (A498): > 100 µM (inactive)
- GI50 (Malme-3M): > 100 µM (inactive)
- GI50 (SK-MEL-2): > 100 µM (inactive)
- GI50 (BT-549): > 100 µM (inactive)
- GI50 (M14): > 100 µM (inactive)
- GI50 (NCI-H522): > 100 µM (inactive)
- GI50 (KM12): > 100 µM (inactive)
- GI50 (HT-29): > 100 µM (inactive)
- GI50 (SW-620): > 100 µM (inactive)
- GI50 (EKVX): > 100 µM (inactive)
- GI50 (MDA-MB-231): > 100 µM (inactive)
- GI50 (RPMI-8226): > 100 µM (inactive)
- GI50 (RXF 393): > 100 µM (inactive)

Compound: CSc1c(C#N)c(N)n2c1C(=O)N(c1ccccc1)C2=S
- GI50 (Hs-578T): 28 µM (inactive)
- GI50 (UACC-62): > 100 µM (inactive)
- GI50 (COLO 205): 30 µM (inactive)
- GI50 (SF-295): 38.6 µM (inactive)
- GI50 (HCC 2998): > 100 µM (inactive)
- GI50 (TK-10): > 100 µM (inactive)
- GI50 (UO-31): > 100 µM (inactive)
- GI50 (SK-MEL-5): > 100 µM (inactive)
- GI50 (SK-OV-3): 91.6 µM (inactive)
- GI50 (SNB-75): 53.3 µM (inactive)
- GI50 (HOP-92): 31.3 µM (inactive)
- GI50 (HCT-15): > 100 µM
- GI50 (SNB-19): > 100 µM (inactive)
- GI50 (OVCAR-5): > 100 µM (inactive)
- GI50 (HOP-62): 63 µM (inactive)
- GI50 (NCI/ADR-RES): 80.5 µM (inactive)
- GI50 (SF-268): 88.1 µM (inactive)
- GI50 (LOX IMVI): 72.1 µM (inactive)
- GI50 (T47D): 52.6 µM (inactive)
- GI50 (CAKI-1): 77.1 µM (inactive)
- GI50 (NCI-H226): > 100 µM (inactive)
- GI50 (MCF7): > 100 µM (inactive)
- GI50 (K562): > 100 µM (inactive)
- GI50 (MDA-N): > 100 µM (inactive)
- GI50 (PC-3): 61.7 µM (inactive)
- GI50 (MOLT-4): > 100 µM (inactive)
- GI50 (NCI-H23): 28.2 µM (inactive)
- GI50 (786-0): 32.6 µM (inactive)
- GI50 (OVCAR-3): > 100 µM (inactive)
- GI50 (HL-60): > 100 µM (inactive)
- GI50 (CCRF-CEM): 68.2 µM (inactive)
- GI50 (IGROV-1): 41.7 µM (inactive)
- GI50 (OVCAR-4): 26.5 µM (inactive)
- GI50 (MDA-MB-435): > 100 µM (inactive)
- GI50 (UACC-257): > 100 µM (inactive)
- GI50 (ACHN): 48.2 µM (inactive)
- GI50 (NCI-H460): > 100 µM (inactive)
- GI50 (OVCAR-8): 92.9 µM (inactive)
- GI50 (SK-MEL-28): > 100 µM (inactive)
- GI50 (SN12C): 74 µM (inactive)
- GI50 (U-251): 41.9 µM (inactive)
- GI50 (SF-539): 92.7 µM (inactive)
- GI50 (HCT-116): 38.3 µM (inactive)
- GI50 (A549): > 100 µM (inactive)
- GI50 (DU-145): > 100 µM (inactive)
- GI50 (A498): 23 µM (inactive)
- GI50 (Malme-3M): 90.4 µM (inactive)
- GI50 (BT-549): > 100 µM (inactive)
- GI50 (M14): > 100 µM (inactive)
- GI50 (NCI-H522): 21.2 µM (inactive)
- GI50 (KM12): 51.5 µM (inactive)
- GI50 (HT-29): 90.2 µM (inactive)
- GI50 (SW-620): 85.1 µM (inactive)
- GI50 (EKVX): 8.2 µM (inactive)
- GI50 (MDA-MB-231): 20.3 µM (inactive)
- GI50 (RXF 393): > 100 µM (inactive)
